Experimental data from US9456555B2, “Agent for treating grape vine wood” (Financiere Mercier, priority 2011, dated 2016).

Experiments:
[1] = tested on: Botryosphaeria obtusa, Botryosphaeria dothidea, Eutypa lata, Fomitiporia punctata, Phaeacremonium aleophilum, Phaeomonelia chlamydospora, Phaeoacremonium spp. …; assay: Comparative in vivo test of wood disinfection, PCR analysis for presence of 8 fungi; parameters: species or system grapevine; details: immersion 12 h
Description: The in vivo test consisted of evaluating a set of 1025 plants derived from 4 rootstocks and 5 different varieties (to limit the varietal effect). Samples of the seedlings were taken before and after treatment. The treatment consisted of immersing the wood in the various solutions under test for 12 h, i.e. the usual rehydration time of the wood in the nursery (overnight). The samples of wood before and after treatment were analyzed, by extracting the total DNA of the wood samples taken, and evaluation by molecular diagnostics (PCR analysis) for the presence or absence of these 8 fungi: Botryosphaeria obtusa, Botryosphaeria dothidea, Eutypa lata, Fomitiporia punctata, Phaeacremonium aleophilum, Phaeomonelia chlamydospora, Phaeoacremonium spp. and Cylindrocarpon destructans. […] If nothing is indicated, it is because it was never found.

grapevine seedlings = assay: Percentage of recovery (take) after planting; format: in vivo
From the text: The result of recovery (take) after planting (growth of the plants) is very important, as the treatment must not be injurious for the grapevine seedlings.

[2] = tested on: 8 fungi referenced as pathogens and associated with various diseases of the wood; assay: Comparative in vitro test on PDA medium, mycelium growth; format: cell-based; details: 10 ml solution left for 12 h on PDA; observed several weeks, about 25° C.; neutral anolyte 100%
Description: That is why an in vitro test was carried out, in order to compare the effect of water, hydrogen peroxide, desogerm and the neutral anolyte (100%) on 8 fungi referenced as pathogens and associated with various diseases of the wood. Strains of the 8 fungi mentioned above were deposited on culture medium with low discrimination (PDA—Potato Dextrose Agar—Medium). Then 10 ml of each solution was added to Petri dishes with the inoculated strains of fungi, and left for 12 h.

Compound: OO [H2O2, hydrogen peroxide]
- fungus found at least once among the individuals evaluated (PCR) ([1]; Merlot.N (182), with THW (50° C.-45 min)): B.obt
- fungus found at least once among the individuals evaluated (PCR) ([1]; R110 (151), with THW (50° C.-45 min)): B.obt
- fungus found at least once among the individuals evaluated (PCR) ([1]; SO4(203), with THW (50° C.-45 min)): B.obt
- fungus found at least once among the individuals evaluated (PCR) ([1]; SO4(203), without THW): E.lata
- Percentage of recovery of the treated seedlings (grapevine seedlings; 8 days after planting): 59%
- Percentage of recovery of the treated seedlings (grapevine seedlings; 20 days after planting): 94.8%
- alteration of the wood (grapevine seedlings; contact with the cuttings during the rehydration phase): alters the wood
- growth of the fungi (radius of mycelium) [2]: a certain efficacy
